Data taken from patent US12606508B2, “Cannabis extracts and uses thereof” (priority 2020, dated 2026).

How the values were obtained:
human CB2 receptor = target: T1, human CB2 receptor (Homo sapiens, UniProt P34972); conditions: cited from earlier work
T1 construct: Eurofins Discovery (contract assay)

human CB1 receptor = target: T2, human CB1 receptor (Homo sapiens, UniProt P21554); conditions: literature values used for comparison; read-out: Ki against CB1 receptor reported in the literature; cited from earlier work
T2 construct: Eurofins Discovery (contract assay)

CD-1 mice = assay: Formalin test in mice; assay type: in vivo; conditions: AM251 0.5 mg/kg i.p. or AM630 1 mg/kg i.p., 10 min before Δ^9-THCB 3 mg/kg i.p.
Description: Formalin test in mice. Male CD-1 mice 6-8 weeks (Envigo, Italy), were housed under controlled conditions (12 h light/12 h dark cycle; temperature 20-22 C; humidity 55-60%) with chow and tap water available ad libitum. All surgeries and experimental procedures were approved by the Animal Ethics Committee of University of Campania “L. Vanvitelli” (Naples). Animal care was in compliance with Italian (D.L. 116/92) and European Commission (O.J. of E.C. L358/1 18/12/86) regulations on the protection of laboratory animals. All efforts were made to minimize animal suffering and to reduce the number of animals used. All the experiments were performed in a randomized manner by the same operator blind to pharmacological treatments. Mice weighing 28-32 g were used after 1 week-acclimation period and received formalin (1.25% in saline, 30 μL) in the dorsal surface of one side of the hind-paw. Each mouse, randomly assigned to one of the experimental groups (n=5), was placed in a plexiglass cage and allowed to move freely for 15-20 min. A mirror was placed at a 45° angle under the cage to allow full view of the hind-paws. Lifting, favoring, licking, shaking and flinching of the injected paw were recorded as nocifensive behavior.^61 The total time of the nociceptive response was measured every 5 min for 60 minutes and expressed in min (mean±SEM). Mice received vehicle (0.5% DMSO in saline) or different doses of Δ^9-THCB (2, 3 and 5 mg/kg, i.p.) 20 min before formalin injection alone or in combination with AM251 (0.5 mg/kg, i.p.) or AM630 (1 mg/kg, i.p.). The antagonists were administered 10 min before drugs injection.
Statistics for in vivo experiments. Data are represented as means±standard error of the mean (S.E.M). Statistical analysis of the data was performed by analysis of variance two-way ANOVA followed by Bonferroni post hoc or Dunnett's multiple comparison test. All statistical analyses were performed by using GraphPAD software (San Diego, California). Differences were considered significant at p<0.05.

T2 sequence (P21554 whole entry): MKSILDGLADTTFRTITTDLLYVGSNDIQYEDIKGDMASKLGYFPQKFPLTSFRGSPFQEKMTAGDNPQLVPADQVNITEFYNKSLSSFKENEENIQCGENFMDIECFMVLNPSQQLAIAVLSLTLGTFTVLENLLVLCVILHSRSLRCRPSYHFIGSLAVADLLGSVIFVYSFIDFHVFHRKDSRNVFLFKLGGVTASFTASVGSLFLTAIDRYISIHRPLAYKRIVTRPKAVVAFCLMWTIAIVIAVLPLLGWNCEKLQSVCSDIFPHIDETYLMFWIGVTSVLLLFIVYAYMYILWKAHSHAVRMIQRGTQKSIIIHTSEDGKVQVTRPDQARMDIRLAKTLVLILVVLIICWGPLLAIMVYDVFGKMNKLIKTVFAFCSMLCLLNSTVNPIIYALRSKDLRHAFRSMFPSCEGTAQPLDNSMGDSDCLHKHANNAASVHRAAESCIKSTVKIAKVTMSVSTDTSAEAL
T1 sequence (P34972 whole entry): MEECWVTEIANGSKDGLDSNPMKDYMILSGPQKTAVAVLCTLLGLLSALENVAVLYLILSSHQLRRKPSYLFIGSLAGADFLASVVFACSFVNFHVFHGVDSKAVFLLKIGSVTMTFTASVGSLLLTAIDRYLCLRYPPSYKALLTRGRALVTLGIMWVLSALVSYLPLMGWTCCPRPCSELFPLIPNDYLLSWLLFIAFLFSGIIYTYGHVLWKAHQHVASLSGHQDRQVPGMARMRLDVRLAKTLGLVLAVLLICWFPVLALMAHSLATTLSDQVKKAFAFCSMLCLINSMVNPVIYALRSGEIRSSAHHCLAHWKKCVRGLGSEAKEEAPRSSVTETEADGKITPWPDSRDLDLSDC

Compound	Ki (human CB1 receptor)	effect of antagonist pre-treatment on Δ^9-THCB analgesia in formalin test (CD-1 mice)	other results
C=C(C)[C@@H]1CCC(C)=C[C@H]1c1c(O)cc(CCCCC)cc1O [CBD, cannabidiol]			affinity to CB2 receptor (in words, literature) (human CB2 receptor): poor affinity
CCCc1cc(O)c2c(c1)OC(C)(C)[C@@H]1CCC(C)=C[C@@H]21 [Δ^9-THCV, Δ^9-tetrahydrocannabivarin]	75.4 nM		
Cc1c(C(=O)NN2CCCCC2)nn(-c2ccc(Cl)cc2Cl)c1-c1ccc(I)cc1 [AM251]		prevented the analgesic effects induced by Δ^9-THCB	
CC1=CC[C@@H]2[C@@H](C1)c1c(O)cc(C(C)(C)CCCCCCBr)cc1OC2(C)C [AM11542]	0.11 nM		
COc1ccc(C(=O)c2c(C)n(CCN3CCOCC3)c3cc(I)ccc23)cc1 [AM630]		prevented the analgesic effects induced by Δ^9-THCB	
